Where two headings read alike, the source gives them in different places.

Consider seven molecules from article PMC8603350, “A Remote Secondary Binding Pocket Promotes Heteromultivalent Targeting of DC-SIGN” (Journal of the American Chemical Society, 2021).

The test system of one data set is DC-SIGN+ Raji cells. The data set is described as follows: Liposome binding assay, flow cytometry. Format: cell-based. As to the method:
(§1) If not stated otherwise, all media and supplements for cell culture experiments were purchased from Thermo Fisher Scientific. Raji, THP-1 and U937 cell lines (ATCC) were grown in complete growth medium containing RPMI1640 medium, 10% FCS, 100 U mL-1 Penicillin-Streptomycin and GlutaMax at 37°C and 5% CO2. Cells were monitored with a light microscope (IT40 5PH, VWR) and subcultured every 2 -3 days to maintain cell densities ranging from of 0.5 - 3 x 10^6 cells per mL.
(§2) CLR-expressing cell lines were generated as described before.4,27 Briefly, DC-SIGN, Langerin, murine Langerin and murine Dectin-1 cDNAs (Sinobiologicals) were cloned into a lentiviral BIC-PGK-Zeo-T2a-mAmetrine:EF1A construct by Gibson assembly (NEB) according to the manufacturer’s protocol. HEK293 cells were transfected with the lentiviral vector together with third-generation packaging vectors and viral particles were then used for transduction of Raji cells. In analogy, DC-SIGN and Langerin-expressing THP-1 and U937 cell lines were generated by lentiviral transduction.
(§3) Liposome binding assay – flow cytometry
(§4) Liposome binding to CLR-expressing cells was assayed as previously described.27 Briefly, 0.05 x 10^6 cells were plated in transparent conical-bottom 96 well microtiter plates (Nunc) in a volume of 100 µL medium. Plates were centrifuged at 500 x g for 3 minutes, supernatant was aspirated, and cells were resuspended in 100 µL medium, containing 16 µM liposomes. In control experiments, cells were incubated with medium containing 10 mM EDTA or 50 µg mL-1 mannan for 15 min at 4 °C, prior to liposome application. After 1 h incubation at 4 °C in the dark, cells were centrifuged at 500 x g for 3 min and the supernatant was discarded. Cells wer e resuspended in 200 µL ice-cold medium and analyzed by detecting the co-formulated Alexa 647 dye via flow cytometry with a 654 nm laser and a 670/14 nm filter (Attune Nxt, life technologies).
Flow cytometry data was processed using FlowJo (BD Bioscience). Mean fluorescence intensity (MFI) was further analyzed and plotted using GraphPad Prism (GraphPad […]
To monitor allosteric activation of DC-SIGN by glycomimetic 48, the described protocol was adjusted as follows. DC-SIGN+ Raji cells were plated in transparent conical-bottom 96 well microtiter plates (Nunc) in a volume of 100 µL medium. Plates were centrifuged at 500 x g for 3 minutes, supernatant was aspirated, and cell were resuspended in 25 µL medium supplemented with varying concentrations of monovalent carbohydrates or 0.5 mM 48. Homomultivalent liposomes carrying either natural carbohydrates or 48 were added at a final concentration of 16 µM. Liposome binding was subsequently quantified by measuring Alexa 647 fluorescence in flow cytometry experiments. Statistical significance by means of a student’s t-test was assessed based on averaged normalized MFIs from four biological replicates each conducted as technical duplicates. A p-value < 0.05 was set as significance cut-off.
(In general: Flow cytometry measures light scatter and fluorescence of single cells or particles in a stream.)

A further data set relates to Langerin+ Raji cells. The data set can be described thus: Liposome binding assay, flow cytometry. Type of data set: cell-based. The procedure:
as §1, §2, §3, §4
(§5) Flow cytometry data was processed using FlowJo (BD Bioscience). Mean fluorescence

Data set [1] concerns murine Dectin-1-expressing Raji cells. The data set can be described thus: Liposome binding assay, flow cytometry. Format: cell-based. The procedure: as §1, §2, §3, §4, §5
Data set [2] deals with murine Langerin-expressing Raji cells. The data set is described as follows: Liposome binding assay, flow cytometry. Format: cell-based. The procedure:
as §1, §2, §3, §4, §5

The target of data set [3] is T1, Langerin ECD (Homo sapiens, UniProt Q9UJ71).
T1 construct: the trimeric Langerin extracellular domain (ECD) was; made in house; host or cells: E. coli BL21* (DE3)
The data set can be described thus: 19F NMR reporter displacement assay (RDA), KI determination by titration. Type of data set: binding. Conditions: for Ki: competitive titration, 0.1 mM reporter ligand 49, 10% DMSO. The procedure: (§6) via SDS PAGE. The protein solution was aliquoted, snap frozen in liquid N2 and stored at -80°C until further usage.
(§7) NMR binding experiments – Langerin
(§8) General remarks. 19F R2-filtered NMR experiments were conducted on a PremiumCompact 600 MHz spectrometer (Agilent). Spectra were processed in MestreNova (Mestrelab Research) and data analysis was performed with OriginPro (OriginLab) . Experiments with the Langerin ECD were perf ormed at a receptor concentration of 50 μM in 25 mM Tris with 10% D 2O, 150 mM NaCl and 5 mM CaCl 2 […]
(§9) at pH 7.8 and 25°C. […]
CaCl2 at pH 7.0 and 25°C. TFA served as an internal reference at a concentration of 50 μM. Apparent transverse relaxation rates R 2,obs for the reporter ligand were determined using the CPMG pulse sequence as previously published. 6,30,31 […]
KI determination. KI values were determined as previously published for Langerin.6 Briefly, titration experiments were conducted at a concentration of 0.1 mM of reporter ligand 49 at five competitor concentrations [I]T (Table S5). […]

Data set [4] has as its target T2, Langerin CRD (Homo sapiens, UniProt Q9UJ71).
T2 construct: Langerin carbohydrate recognition domains (CRDs) were expressed insolubly in; made in house; host or cells: E. coli BL21* (DE3)
The data set can be described thus: 15N HSQC NMR titration, KD determination. Format: binding. Conditions: 10% DMSO. As to the method: ppm. The acquisition time tacq was set to 2.0 s and the DPFGSE pulse sequence was utilized for solvent suppression.33 Receptor resonances were suppressed using a T1,rho filter at a relaxation time τ of 35 ms.
Epitope mapping. The binding epitope for 43 was determined at a concentration of 500 µM. For each spectrum 512 scans were recorded. The relaxation delay d 1 was set to 6 s and spectra were recorded at 5 different saturation time s tsat varying from 0.25 to 6.00 s. Equation 1 served to derive the STD effect STD for each analyzed resonance from the corresponding on - and off-resonance spectra.34 I0 represents the integral of a resonance in the off-resonance spectrum and Isat represents the integral of a resonance in the on-resonance spectrum.
The apparent saturation rate k sat and the maximal STD effect STDmax were derived from Equation 2 in a two-parameter fit.35 Standard errors were derived directly from the fitting procedures. These parameters were used to calculate the initial slope of the STD build-up curves STD’0 via Equation 3. STD’0 values were normalized and mapped on the corresponding ligand structure. Only resonances for which at least part of a multiplet was isolated were considered for the epitope mapping.
STD = STDmax(1 − eksattsat)
General remarks. 15N HSQC NMR experiments were conducted on an Ascend 700 MHz spectrometer (Bruker).36 Spectra were processed in NMRPipe.37 Data analysis was performed using CCPN Analysis, MatLab (MathWorks) and OriginPro.38 […]
KD determination. KD values were determined in titration experiments at six ligand concentrations [L]T. Samples were prepared via serial dilution. Chemical shift perturbations CSPs for Langerin CRD resonances in the fast or fast-to-intermediate exchange regime observed upon titration with ligand were calculated as previously described via Equation 4.40
A standard deviation σ of 0.02 ppm was previously determined for the measurement of chemical shifts in 15N HSQC NMR experiments with the Langerin CRD. […]

Data set [5] has as its target T1, Langerin ECD. The data set is described as follows: 19F R2-filtered NMR screening of the mannoside library (reporter displacement, single competitor concentration). Format: binding. As to the method:
as §6, §7, §8, §9
CaCl2 at pH 7.0 and 25°C. TFA served as an internal reference at a concentration of 50 μM. Apparent transverse relaxation rates R 2,obs for the reporter ligand were determined using the CPMG pulse sequence as previously published. 6,30,31 Screening of mannoside library . Estimated affinities KI,est were determined in competitive binding experiments at 0.1 mM of reporter ligand 49 at 0.1 mM using the Langerin ECD at a single competitor concentration as previously described.6 Here, receptor concentrations [P]T values were directly calculated from R2,max, the data point at 0.1 mM 49 in absence of competitor. Subsequently, KI values were estimated in a one parameter fit. The screening was conducted in presence of 0% to 10% DMSO at mannoside concentrations between 0.1 and 10 mM. […]

Another data set addresses T3, DC-SIGN ECD (Homo sapiens, UniProt Q9NNX6).
T3 construct: DC-SIGN extracellular domain (ECD); made in house; host or cells: E. coli BL21(DE3), pET30b; gene from GenScript
T3 sequence (Q9NNX6 59-404 limits assumed): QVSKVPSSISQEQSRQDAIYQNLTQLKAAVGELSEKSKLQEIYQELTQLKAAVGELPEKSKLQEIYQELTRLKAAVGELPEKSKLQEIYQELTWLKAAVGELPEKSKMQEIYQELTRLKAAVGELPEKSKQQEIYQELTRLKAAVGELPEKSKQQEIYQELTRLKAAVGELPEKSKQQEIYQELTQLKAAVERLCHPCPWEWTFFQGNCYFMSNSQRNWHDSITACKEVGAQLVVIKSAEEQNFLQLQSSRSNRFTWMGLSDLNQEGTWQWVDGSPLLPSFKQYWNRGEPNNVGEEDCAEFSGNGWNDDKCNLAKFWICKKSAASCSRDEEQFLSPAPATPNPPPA
The data set is described as follows: 19F NMR reporter displacement assay transferred to DC-SIGN ECD. Format: binding. Conditions: 0.1 mM reporter 49; for 48 estimated, receptor precipitation above 1 mM.

Data set [6] deals with T2, Langerin CRD. The arrangement: method as in earlier work. Conditions: previously published values; ref 6 (SI); cited from earlier work.
Setting [7] is: calculated utilizing the KI value determined for 46.
[8] abbreviates: calculated utilizing the KI value determined for 45.

T2 sequence (Q9UJ71 202-320 limits assumed): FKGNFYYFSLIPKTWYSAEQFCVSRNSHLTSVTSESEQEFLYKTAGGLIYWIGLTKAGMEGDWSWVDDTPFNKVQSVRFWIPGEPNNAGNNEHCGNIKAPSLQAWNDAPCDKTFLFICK
T1 sequence (Q9UJ71 65-328 limits assumed): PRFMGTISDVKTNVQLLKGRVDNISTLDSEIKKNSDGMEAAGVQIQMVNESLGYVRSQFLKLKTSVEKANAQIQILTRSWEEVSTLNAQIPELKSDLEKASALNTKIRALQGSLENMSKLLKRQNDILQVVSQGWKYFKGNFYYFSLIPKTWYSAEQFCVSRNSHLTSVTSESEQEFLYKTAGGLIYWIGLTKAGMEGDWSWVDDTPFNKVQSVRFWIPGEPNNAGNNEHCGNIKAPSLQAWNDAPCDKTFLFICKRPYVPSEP
Description for DC-SIGN ECD: KI values were determined as previously described for Langerin and the DC-SIGN CRD.6 Briefly, competitive binding experiments were conducted with 49 at a concentration of 0.1 mM and varying competitor concentrations [I]T. KI and [P]T values were derived from Equation 8 in a two-parameter fit.
𝜃 = 𝑐𝑜𝑠−1 ( ) ,𝑎 = 𝐾𝐷 + 𝐾𝐼 + [𝐿]𝑇 + [𝐼]𝑇 − [𝑃]𝑇
𝑏 = ([𝐼]𝑇 − [𝑃]𝑇)𝐾𝐷 + ([𝐿]𝑇 − [𝑃]𝑇)𝐾𝐷 + 𝐾𝐼𝐾𝐷, 𝑐 = −𝐾𝐼𝐾𝐷[𝑃]𝑇
For KD determination from 19F NMR CSPs, samples and measurements were set up as described for 19F R2-filtered NMR but at a single relaxation time T = 0 s. CSP 19F, T were calculated from the chemical shift of the 19F resonance of 48 in the presence of protein δT at increasing ligand concentrations and the chemical shift in absence of protein δf at a concentration of 1 mM via Equation 4.
The KD value was calculated from CSP19F, T values in a two -parameter fit using Equation 10, using a fixed protein concentration [P] T and a CSP19F of 0 ppm as a lower bound. CSP19F,b corresponds to the top asymptote and was kept variable. As in Equation 9, pb represents the fraction of bound protein.

With `NCCS(=O)(=O)NC[C@H]1O[C@H](Oc2ccc(-c3ccc(C(=O)O)cc3)cc2C(F)(F)F)[C@@H](O)[C@@H](O)[C@@H]1O` [compound 42], the “binding of homomultivalent liposomes decorated with 2 mol% 42” value in the data set with DC-SIGN+ Raji cells (2 mol%, formulations not long-term stable, unspecific binding) is given as “binding preference towards DC-SIGN”; with Langerin+ Raji cells, “negligible”; in data set [1], “negligible”; in data set [2], “negligible”.

Regarding `COC1OC(CO)C(O)C(O)C1O` (stereo not shown) [compound 46, reference compound], the Relative potency at Langerin ECD [3] (setting [7]) is 1.0. Moreover, the Ki at Langerin ECD [3] is 13000 ± 3000 µM. At Langerin CRD [4], the Kd stood at 7000 ± 2000 µM.

For the molecule `O=C(O)c1ccc(-c2ccc(O[C@H]3O[C@H](CO)[C@@H](O)[C@H](O)[C@@H]3O)c(C(F)(F)F)c2)cc1` [compound 9], the potency estimated from few doses on Langerin ECD [5] (estimated at a single competitor concentration, 0.1 mM reporter ligand 49, 0% to 10% DMSO, read-out: KI,est) was 200 µM. The “affinity increase over reference molecule 1” value at Langerin ECD [5] (from KI,est) is listed as 45 fold. The Relative potency at Langerin ECD [3] (setting [8]) is 44; on Langerin ECD [3] (setting [7]) it was 57. For the same molecule, the affinity at Langerin ECD [3], expressed as Ki, was 230 ± 30 µM. This molecule had a Kd at Langerin CRD [4] of 500 ± 200 µM.

As for `C[C@H](O)[C@@H](O)[C@@H](O)[C@H](O)C=O` [Fuc, fucose, reference compound], the “effect of soluble compound on binding of 48 liposomes” value in the data set on DC-SIGN+ Raji cells (soluble Fuc, liposomes with 1.26 mol % 48, p > 0.05, n = 4) is “did not increase”.

Regarding `OC[C@H]1OC(O)[C@@H](O)[C@@H](O)[C@@H]1O` (stereo partly shown) [Man, mannose, reference compound], the Relative potency at Langerin ECD [3] (setting [8]) is recorded as 2.2. In addition, on DC-SIGN ECD, the Ki was 2400 ± 800 µM. For the same molecule, on Langerin CRD [6], the Kd was 5800 ± 300 µM.

In the case of `CC(=O)NCCS(=O)(=O)NC[C@H]1O[C@H](Oc2ccc(-c3ccc(C(=O)O)cc3)cc2C(F)(F)F)[C@@H](O)[C@@H](O)[C@@H]1O` [compound 43], the Relative potency on Langerin ECD [3] (setting [8]) is on record as 40. On Langerin ECD [3], this molecule displayed a Ki of 250 ± 70 µM. Further, the “affinity increase over Man reference 45” value at Langerin ECD [3] (from KI) was determined as 40 fold. This molecule registered a Kd at Langerin CRD [4] of 460 ± 90 µM.

Take `CC(=O)NCCO[C@H]1O[C@H](CO)[C@@H](O)[C@H](O)[C@@H]1O` [compound 45, reference compound]: at Langerin ECD [3] (setting [8]), the Relative potency is 1.0.

Usually Ki stands for a dissociation constant, usually derived from enzyme kinetics or from competition with a known ligand. For orientation: Kd means the free concentration of one partner at which half of the binding sites on the other are occupied at equilibrium, for simple one-to-one binding.
